Laboratory results: patent publication US20200055839A1 (priority 2017, published 2020)

System: NL-RLuc virus
Assay: Inhibition of HIV replication (NL-RLuc virus, luciferase readout in MT-2 cells)
Assay type: cell-based
Settings: Human immunodeficiency virus 1, MT2, 120 h, MT-2 cells infected with NL-RLuc virus, 5 days of incubation, 10% FBS, at least 2 experiments
Text: Inhibition of HIV Replication:
A recombinant NL-RLuc proviral clone was constructed in which a section of the nef gene form NL4-3 was replaced with the Renilla Luciferase gene. This virus is fully infectious and can undergo multiple cycles of replication in cell culture. In addition, the luciferous reporter provides a simple and easy method for quantitating the extent of virus growth and consequently, the antiviral activity of test compounds. The plasmid pNLRLuc contains the proviral NL-Rluc DNA cloned into pUC18 at the PvuII site. The NL-RLuc virus was prepared by transfection of 293T cells with the plasmid pNLRLuc. Transfections were performed using the LipofectAMINE PLUS kit form Invitrogen (Carlsbad, Calif.) according to the manufacturer and the virus generated was titered in MT-2 cells. For susceptibility analyses, the titrated virus was used to infect MT-2 cells in the presence of compound, and after 5 days of incubation, cells were processed and quantitated for virus growth by the amount of expressed luciferase. Assay media was RPMI 1640 supplemented with 10% heat inactivated fetal bovine serum (FBS), 100 units/ml penicillin G/100 units/ml streptomycin, 10 mM HEPES buffer pH 7.55 and 2 mM L-glutamine. The results form at least 2 experiments were used to calculate the EC50 values. Luciferase was quantitated using the Dual Luciferase kit form Promega (Madison, Wis.). Susceptibility of viruses to compounds was determined by incubation in the presence of serial dilutions of the compound. The 50% effective concentration (EC50) was calculated by using the exponential form of the median effect equation where (Fa)=1/[1+(ED50/drug conc.)^m](Johnson V A, Byington R T. Infectivity Assay. In Techniques in HIV Research. ed. Aldovini A, Walker B D. 71-76. New York: Stockton Press. 1990).

**Q.** `CCC(C)COc1ncc(-c2cnc(C)c([C@H](OC(C)(C)C)C(=O)O)c2N2CCC(C)(C)CC2)cc1F` (stereo partly drawn) [Example 386, (2S)-2-(tert-butoxy)-2-[4-(4,4-dimethylpiperidin-1-yl)-5′-fluoro-6-methyl-6′-(2-methylbutoxy)-[3,3′-bipyridine]-5-yl]acetic acid] was tested. Which EC50 did it give?
**A.** The EC50 was 6 nM.

**Q.** `Cc1ncc(-c2cncc(CCC(C)C)c2)c(N2CCC(C)(C)CC2)c1[C@H](OC(C)(C)C)C(=O)O` [Example 419, (S)-2-(tert-Butoxy)-2-(4-(4,4-dimethylpiperidin-1-yl)-5′-isopentyl-6-methyl-[3, 3′-bipyridin]-5-yl)acetic acid] was tested. Which EC50 did it give?
**A.** Its EC50 is 31 nM.

**Q.** For `CCCOc1ccc(-c2cnc(C)c([C@H](OC(C)(C)C)C(=O)O)c2N2CCC(C)(C)CC2)nc1` [Example 318, (2S)-2-(tert-butoxy)-2-[4′-(4,4-dimethylpiperidin-1-yl)-6′-methyl-5-propoxy-[2,3′-bipyridine]-5′-yl]acetic acid], which EC50 is on record?
**A.** Its EC50 is 3 nM.

**Q.** `COc1cccc(CCOc2ccc(-c3cnc(C)c([C@H](OC(C)(C)C)C(=O)O)c3N3CCC(C)(C)CC3)nc2)c1` [Example 301, (2S)-2-(tert-butoxy)-2-[4′-(4,4-dimethylpiperidin-1-yl)-5-[2-(3-methoxyphenyl)ethoxy]-6′-methyl-[2,3′-bipyridine]-5′-yl]acetic acid] was tested. Which EC50 did it give?
**A.** Its EC50 is 1 nM.

**Q.** With `Cc1ncc(-c2ccc(OCCc3ccc(F)cc3)c(F)c2F)c(N2CCC(C)(C)CC2)c1[C@H](OC(C)(C)C)C(=O)O` [Example 124, (S)-2-(tert-Butoxy)-2-(5-(2,3-difluoro-4-(4-fluorophenethoxy)phenyl)-4-(4,4-dimethylpiperidin-1-yl)-2-methylpyridin-3-yl)acetic acid] as the compound, how does the EC50 read?
**A.** The EC50 was 2 nM.

**Q.** For `Cc1nc(C(N)=O)c(-c2ccc(OCCc3ccc(F)cc3)cc2)c(N2CCC(C)(C)CC2)c1[C@H](OC(C)(C)C)C(=O)O` [Example 13, (S)-2-(tert-Butoxy)-2-(6-carbamoyl-4-(4,4-dimethylpiperidin-1-yl)-5-(4-(4-fluorophenethoxy)phenyl)-2-methylpyridin-3-yl)acetic acid], which EC50 is on record?
**A.** Its EC50 is 10 nM.

**Q.** How did the EC50 turn out when `Cc1ncc(-c2ccccc2C#N)c(N2CCC(C)(C)CC2)c1[C@H](OC(C)(C)C)C(=O)O` [Example 153, (2S)-2-(tert-Butoxy)-2-[5-(2-cyanophenyl)-4-(4,4-dimethylpiperidin-1-yl)-2-methylpyridin-3-yl]acetic acid] was run?
**A.** Its EC50 is 29 nM.

**Q.** With `Cc1nc(CO)c(-c2ccc(F)c(F)c2)c(N2CCC(C)(C)CC2)c1[C@H](OC(C)(C)C)C(=O)O` [Example 140, (2S)-2-(tert-Butoxy)-2-[5-(3,4-difluorophenyl)-4-(4,4-dimethylpiperidin-1-yl)-6-(hydroxymethyl)-2-methylpyridin-3-yl]acetic acid] as the compound, how does the EC50 read?
**A.** The EC50 was 53 nM.

**Q.** For `Cc1ncc(-c2cnc(OCCc3ccc(F)cc3)c(F)c2)c(N2CCC(C)(C)CC2)c1[C@H](OC(C)(C)C)C(=O)O` [Example 118, (S)-2-(tert-Butoxy)-2-(4-(4,4-dimethylpiperidin-1-yl)-5′-fluoro-6′-(4-fluorophenethoxy)-6-methyl-[3, 3′-bipyridin]-5-yl)acetic acid], which EC50 is on record?
**A.** Its EC50 is 1 nM.

**Q.** Which EC50 does the source give for `Cc1nc(N)c(-c2ccc(OCCc3ccc(F)cc3)c(F)c2)c(N2CCC(C)(C)CC2)c1[C@H](OC(C)(C)C)C(=O)O` [Example 73, (S)-2-(6-Amino-4-(4,4-dimethylpiperidin-1-yl)-5-(3-fluoro-4-(4-fluorophenethoxy)phenyl)-2-methylpyridin-3-yl)-2-(tert-butoxy)acetic acid] here?
**A.** Its EC50 is 1 nM.

**Q.** Which EC50 does the source give for `Cc1ncc(-c2cnc(OC(C)CC(C)C)c(F)c2)c(N2CCC(C)(C)CC2)c1[C@H](OC(C)(C)C)C(=O)O` (stereo partly drawn) [Example 384, (2S)-2-(tert-butoxy)-2-[4-(4,4-dimethylpiperidin-1-yl)-5′-fluoro-6-methyl-6′-[(4-methylpentan-2-yl)oxy]-[3,3′-bipyridine]-5-yl]acetic acid] here?
**A.** The EC50 was 9 nM.

**Q.** With `Cc1ncc(-c2ccc(OCCc3c(F)cccc3F)cn2)c(N2CCC(C)(C)CC2)c1[C@H](OC(C)(C)C)C(=O)O` [Example 327, (2S)-2-(tert-butoxy)-2-{5-[2-(2,6-difluorophenyl)ethoxy]-4′-(4,4-dimethylpiperidin-1-yl)-6′-methyl-[2,3′-bipyridine]-5′-yl}acetic acid] as the compound, how does the EC50 read?
**A.** Its EC50 is 5 nM.

**Q.** How did the EC50 turn out when `Cc1ncc(-c2ccc([C@@H](O)CC(C)C)nc2)c(N2CCC(C)(C)CC2)c1[C@H](OC(C)(C)C)C(=O)O` [Example 432, (S)-2-tert-Butoxy-2-(4-(4,4-dimethylpiperidin-1-yl)-6′-((S)-1-hydroxy-3-methylbutyl)-6-methyl-3, 3′-bipyridin-5-yl)acetic acid] was run?
**A.** The EC50 was 32 nM.

**Q.** Which EC50 does the source give for `Cc1nc(CN2CCC3(CCC3)CC2)c(-c2ccc(OCCc3ccc(F)cc3)c(F)c2)c(N2CCC(C)(C)CC2)c1[C@H](OC(C)(C)C)C(=O)O` [Example 231, (S)-2-(6-((7-Azaspiro[3.5]nonan-7-yl)methyl)-4-(4,4-dimethylpiperidin-1-yl)-5-(3-fluoro-4-(4-fluorophenethoxy)phenyl)-2-methylpyridin-3-yl)-2-(tert-butoxy)acetic acid] here?
**A.** Its EC50 is 0.6 nM.

**Q.** For `COc1cc(F)c(F)c(-c2cnc(C)c([C@H](OC(C)(C)C)C(=O)O)c2N2CCC(C)(C)CC2)c1` [Example 157, (2S)-2-(tert-Butoxy)-2-[5-(2,3-difluoro-5-methoxyphenyl)-4-(4,4-dimethylpiperidin-1-yl)-2-methylpyridin-3-yl]acetic acid], which EC50 is on record?
**A.** Its EC50 is 22 nM.

**Q.** How did the EC50 turn out when `COc1ccc(-c2cnc(C)c([C@H](OC(C)(C)C)C(=O)O)c2N2CCC(C)(C)CC2)c(F)c1` [Example 181, (2S)-2-(tert-Butoxy)-2-[4-(4,4-dimethylpiperidin-1-yl)-5-(2-fluoro-4-methoxyphenyl)-2-methylpyridin-3-yl]acetic acid] was run?
**A.** The EC50 was 6 nM.

**Q.** With `COc1ccc(CCOc2ccc(-c3cnc(C)c([C@H](OC(C)(C)C)C(=O)O)c3N3CCC(C)(C)CC3)nc2)c(C)c1` [Example 292, (2S)-2-(tert-butoxy)-2-[4′-(4,4-dimethylpiperidin-1-yl)-5-[2-(4-methoxy-2-methylphenyl)ethoxy]-6′-methyl-[2,3′-bipyridine]-5′-yl]acetic acid] as the compound, how does the EC50 read?
**A.** Its EC50 is 2 nM.

**Q.** For `Cc1ncc(-c2cccc(F)c2Cl)c(N2CCC(C)(C)CC2)c1[C@H](OC(C)(C)C)C(=O)O` [Example 165, (2S)-2-(tert-Butoxy)-2-[5-(2-chloro-3-fluorophenyl)-4-(4,4-dimethylpiperidin-1-yl)-2-methylpyridin-3-yl]acetic acid], which EC50 is on record?
**A.** Its EC50 is 8 nM.

**Q.** How did the EC50 turn out when `Cc1ncc(-c2ccc(OCCc3cccc(F)c3)c(F)c2)c(N2CCC(C)(C)CC2)c1[C@H](OC(C)(C)C)C(=O)O` [Example 257, (S)-2-(tert-Butoxy)-2-(4-(4,4-dimethylpiperidin-1-yl)-5-(3-fluoro-4-(3-fluorophenethoxy)phenyl)-2-methylpyridin-3-yl)acetic acid] was run?
**A.** Its EC50 is 1 nM.

**Q.** With `Cc1nn(C)cc1-c1nc(C)c([C@H](OC(C)(C)C)C(=O)O)c(N2CCC(C)(C)CC2)c1-c1ccc(OCCc2ccc(F)cc2)cc1` [Example 37, (S)-2-(tert-Butoxy)-2-(6-(1,3-dimethyl-1H-pyrazol-4-yl)-4-(4,4-dimethylpiperidin-1-yl)-5-(4-(4-fluorophenethoxy)phenyl)-2-methylpyridin-3-yl)acetic acid] as the compound, how does the EC50 read?
**A.** Its EC50 is 2 nM.
